In a melting point compilation (Tetko et al.; mined from patent text by program, amines drawn as free bases though some values may be those of a salt):

Row | melting point [°C] | SMILES
1 | 140 to 145 | CC(=O)Nc1ccc(-c2cccc(-c3nc(C(C)C)[nH]c3-c3cccc(C)n3)c2)cc1
2 | 112 to 113 | CNC(=O)OCc1nc(C(C)C)c(Sc2cc(Cl)cc(Cl)c2)n1C
3 | 269 to 271 | O=c1[nH]c(=S)[nH]cc1-c1ccccc1
4 | 126 to 127 | O=C1c2ccccc2C(=O)N1CCCCOc1ccncc1
5 | 46 to 47 | COC(=O)C(C)(C)CCCOc1c(C)cc(OC(=O)C(C)(C)C)c(C)c1C
6 | 92 to 93.5 | CSc1ccc(C(O)c2ccccc2)cc1 (centres undefined)
7 | 39 to 40 | CC#CCOc1cc2c(cc1CCC)OCO2
8 | 206 to 208 | COc1ccc(N2CCOCC2)cc1NC(=S)C(=O)Nc1ccc(F)cc1
9 | 41 | C=C(C)C(=O)OCc1ccc(SC)cc1
10 | 304 to 307 | CCCn1c(=O)c2[nH]c(-c3cc(C)n(CC(=O)Nc4cccc(Cl)c4)n3)nc2n(CCC)c1=O
11 | > 300 | O=C1C(=c2[nH]c(=c3[nH]c(=C4C(=O)c5ccccc5C4=O)c4ccccc34)c3ccccc23)C(=O)c2ccccc21
12 | 131 to 133 | O=[N+]([O-])c1ccc(OS(=O)(=O)c2ccccc2I)cc1
13 | 148 to 149 | CCOC(=O)c1c(S(N)(=O)=O)c2ccccc2n1CC
14 | 163 | CCCCOc1cc(C(=O)NCCN(CC)CC)cc(S(N)(=O)=O)c1Cc1ccccc1
15 | 244 | CC(NC(=O)Cc1cc(F)cc(F)c1)C(=O)NC1C(=O)NC(c2ccccc2)c2ccccc21 (centres undefined)
16 | 149 to 150 | COc1ccc(C=C(C=O)C(C=O)=Cc2ccc(OC)c(OC)c2)cc1OC
17 | 313 to 315 | O=c1oc2ccccc2c2c(-c3ccccc3)c3c4ccccc4ccn3c12
18 | 204 | O=C1CCN(c2cc3c(cc2-c2ccc(F)cc2)NC(=O)CC(c2cccc(-n4ccnc4)c2)=N3)CC1
19 | 172 to 173 | CC(=O)OCC1CN(C(=O)OC(C)(C)C)c2cc(OCc3ccccc3)c3ncccc3c21 (centres undefined)
20 | 112 to 113 | O=C(O)CCCc1ccc(CCN(CC=Cc2ccc(Cl)cc2)S(=O)(=O)c2ccc(Cl)cc2)cc1
21 | 79 | CC(C)Oc1cc(-n2c(=O)cc(C(F)(F)F)n(C)c2=O)c(F)cc1Br
22 | 117 to 118 | CCOc1cc(COc2nn(-c3ccccc3)cc2/C=C/P(=O)(OCC)OCC)ccc1OCc1nc(-c2ccco2)oc1C
23 | > 250 | NS(=O)(=O)c1ccc(NN=C2C(=O)Nc3cccc(Oc4ccccc4)c32)cc1

Row | melting point [°C] | SMILES
24 | 190 to 191 | COC1CC(C(=O)O)Cc2onc(-c3ccc(Cl)cc3)c21 (centres undefined)
25 | 60 to 62 | CCCNS(=O)(=O)c1cc(C)c2cc(C(C)C)ccc(C)c1-2
26 | 94 to 96 | CC(C)C(=O)NN(C)C
27 | 253 to 255 | O=C(O)c1cn(CCO)c2c(F)c(N3CCn4ccnc4C3)c(F)cc2c1=O
28 | 184 to 186 | O=c1ccn(CCO)c(C(O)c2ccc(Cl)cc2)c1O (centres undefined)
29 | 163 to 168 | O=C(N1CCOCC1)N1CCN(CCNc2ncc3ncnc(Nc4ccc(F)c(Cl)c4)c3n2)CC1
30 | > 260 | O=C1CCC(N2Cc3c(CNC(=O)Nc4ccc(Cl)cc4)cccc3C2=O)C(=O)N1 (centres undefined)
31 | 32 to 33 | Cc1c(Cl)ccc(Br)c1Cl
32 | 131 to 133 | COC1(c2cc(F)cc(Sc3ccc(C(=NO)C(F)(F)F)cc3)c2)CCOCC1
33 | 80 | O=C1Cc2ccc(S(=O)(=O)Cl)cc21
34 | 95 to 97 | CCOC(=O)C(=O)Nc1cc(N2CCOCC2)ccc1OC
35 | 302 | O=CNn1cc(C(=O)O)c(=O)c2cc3c(cc21)OCO3
36 | 158 to 166 | O=C1N(CC2CCCCO2)c2ccccc2C12COc1cc3c(cc12)OCCO3 (centres undefined)
37 | 113 | CCOC(=O)c1c(N2CCN(C(=O)c3cccs3)CC2)c2cc(F)cnc2n(Cc2cccc(F)c2)c1=O
38 | 218 to 219 | OCc1cccc2c1[nH]c1c3cc(Br)ccc3oc21
39 | 93 to 95 | CC(CCl)n1c(C(F)(F)F)nc2cc(F)c(-n3c(=O)cc(C(F)(F)F)n(C)c3=O)cc21 (centres undefined)
40 | 103 to 106 | CN(C)C(=O)COc1ccc2c(c1)C[C@@H](NC[C@@H](O)c1ccc(OCc3ccccc3)cc1)CC2
41 | 186 to 190 | O=C(O)c1[nH]c2ccc(C(O)(C(F)(F)F)C(F)(F)F)cc2c1-c1ccccc1
42 | 150 to 160 | O=c1[nH]nc(-c2ccc(NN=C(c3ccc(O)cc3)c3ccc(O)cc3O)cc2)c2ccccc12
43 | 134 to 135 | COc1ccc(/C=C/C=C/C(=O)O)cc1
44 | 175 to 178 | Cc1ccc(N(CCN2CCC(C(=O)c3ccc(F)cc3)CC2)C(=O)c2ccc([N+](=O)[O-])cc2)cc1
45 | 250 | Cn1nc(C2CCN(CCn3c(=O)[nH]c4ccccc4c3=O)CC2)c2ccc(F)cc21
46 | 220 to 221 | CC(=O)Nc1ccc(C(=S)NN)cc1

Row | melting point [°C] | SMILES
47 | 113 to 114 | CN1C(=O)CN(CCc2ccccc2)C1=O
48 | 160 to 162 | COc1cccc(CN2CCN(C)CC2C2=NCCN2)c1OC (centres undefined)
49 | 184 to 185 | CCOC(=O)c1cn(-c2nccs2)c2nc(Cl)cc(C(F)(F)F)c2c1=O
50 | 77 to 79 | COc1ccc(CC(SC)C(=O)OCc2ccccc2)cc1C(=O)NCc1ccc(C(F)(F)F)cc1 (centres undefined)
51 | 130 | CC(C)OC(=O)c1ccc(OCC(=NO)c2ccc3c(c2)C(C)(C)CCC3(C)C)cc1O
52 | 147 to 148 | O=C(O)c1cc([N+](=O)[O-])ccc1Nc1ccc(CCCCCc2ccc(Cl)c(Cl)c2)cc1
53 | 106 to 108 | Nc1nc2ccccc2n1-c1cccc(-c2cscc2CO)c1
54 | 109 to 110 | CCN(CCCOC)c1nc(C)nc2c1nnn2-c1ccc(C(C)C)cc1Br
55 | 260 to 265 | CS(=O)(=O)Nc1cccc(C=C2SC(=S)NC2=O)c1
56 | 170 to 176 | Cc1ccc(C(C=NO)=NO)cc1
57 | 223 to 226 | CONC(=O)c1cccc(-c2nc3ccccc3c(=O)o2)c1
58 | 163 to 165 | C/C=C1\OC(=O)c2c(Oc3nc(OC)cc(OC)n3)cccc21
59 | 244 to 245 | N#Cc1ccc(-c2csc(-n3c(=O)oc4ccccc43)n2)cc1
60 | 255 to 256 | Cc1cc(C)n2nc(NS(=O)(=O)c3ccccc3[N+](=O)[O-])nc2n1
61 | 87 to 88 | COC(=O)/C(=C/c1cccc(OC)c1)c1cc(OC)c(OC)c(OC)c1
62 | 138 | COc1ccc(C2CCN(C(=O)C(=O)NO)CC2)cc1CC1CCCC1
63 | 74 to 76 | CCCCCCCCCCCC[C@]1(O)C(=O)O[C@H](C(=O)OC)[C@@]1(O)C(=O)OC (racemic)
64 | 88 to 90 | COc1cc(Nc2c(C#N)cnc3cc(OCCOCCN4CCNCC4)c(OC)cc23)c(Cl)cc1Cl
65 | 176 | Cc1nn(C)c(C)c1C(=O)Nc1cccc2c1C(C)CC2(C)C (centres undefined)
66 | 233 to 235 | COC(=O)C=Cc1ccc(-c2ccc(O)cc2)cc1
67 | 150 to 151 | O=C(O)C(=O)CC(=O)c1cccn1Cc1ccccc1
68 | 110 to 112 | CN1CCC(Oc2ccc(C(=O)NN)cc2)CC1
69 | 119 to 132 | CCc1nc2c(C)cc(C)nc2n1Cc1ccc(C(=C(Cl)c2nnn[nH]2)c2ccccc2)cc1

Row | melting point [°C] | SMILES
70 | 211 to 214 | O=C(O)C1=Cc2c(ccc(Cl)c2-c2ccsc2)OC1C(F)(F)F (centres undefined)
71 | 80 to 83 | N=C(OCC1CC1)N1Cc2ccccc2-c2ccccc2C1
72 | 167 to 168 | CCOC(=O)Nc1ccc(C(C)C(O)(Cn2cncn2)c2ccc(F)cc2F)cn1 (centres undefined)
73 | 163 to 164 | CCOC(=O)/C(=N\OCC(=O)N1CCCCCC1)c1csc(N)n1
74 | > 255 | COc1ccc2c(c1)sc1nc(N)nc(=Nc3ccc(O)cc3)n12
75 | 160 | O[C@@H]1CN=C(c2ccoc2)O[C@H]1c1ccccc1 (racemic)
76 | 146 to 148 | CC(C)(C)NC(=O)OC1SCN(c2ccccc2)C1=O (centres undefined)
77 | 212 to 214 | CC1(c2onc(-c3ccc(O)cc3)c2-c2ccccc2)CC1
78 | 118 to 125 | COc1cc(Nc2c(C#N)cnc3cc(-c4cc(CN5CCOCC5)c(CN5CCOCC5)s4)ccc23)c(Cl)cc1Cl
79 | 197 to 198 | Cn1c(C#N)ccc1-c1ccc2c(c1)C(C)(c1cccs1)OCC(=O)N2 (centres undefined)
80 | 162 to 164 | CS(=O)(=O)c1ccc(C(=O)C(C#N)C(=O)C2CC2)c(Cl)c1-c1nccs1 (centres undefined)
81 | 254 to 257 | CC(C)(C)c1ccc(-c2nc(N)sc2-c2ccncc2)cc1
82 | 264 to 265 | CN1CCN(c2c(F)cc3c(=O)c(C(=O)O)cn(C4CC4)c3c2C#N)CC1
83 | 79 | COC(=O)c1ccc(C=O)s1
84 | 164 to 166 | O=[N+]([O-])c1ccc(-c2nc(-c3ccccc3)no2)o1
85 | 194 | COc1ccc(NC(=O)CN(C(=O)CNC(=O)Nc2cccc(C)c2)c2ccccc2)cc1
86 | 186 to 188 | CC(C)(C)NC(=O)NCc1cccc2c1C(=O)N(C1CCC(=O)NC1=O)C2=O (centres undefined)
87 | 205 to 208 | CN(C)Cc1ccccc1Oc1cccc(CC(=O)O)c1
88 | 185 to 187 | CC(=O)SCC(Cc1noc2ccccc12)C(=O)Nc1cccc(C(=O)O)c1 (centres undefined)
89 | > 320 | O=c1[nH]c2sc3ccc(C(F)(F)F)cc3c2[nH]c1=O
90 | 125 to 126 | COc1cccc(CC(=O)O)c1OCCCc1cn(-c2ccc(F)cn2)nc1C(C)C
91 | 221 to 222 | Cc1ccc2nc(-c3ccc([N+](=O)[O-])cc3)c(CNC(=O)CC(C)C)n2c1
92 | 94 to 96 | CC(C)(C)c1ccc2c(c1)C(=O)CC2

Row | SMILES | melting point [°C]
93 | CCCCCCC(C)(C)c1ccc(C2CCCNC2)c(O)c1 (centres undefined) | 138 to 140
94 | C1=C(c2c[nH]c3c(C4CC4)cccc23)CCNC1 | 186 to 189
95 | CN1CC[C@@H]2CC(=O)c3cccc(F)c3[C@@H]2C1 (relative stereo) | > 220
96 | O=C1NCCC1Cc1ccccc1 (centres undefined) | 112 to 113
97 | Nc1ccc(Cl)cc1C1=CCN(C/C=C/c2ccc(Cl)cc2)CC1 | 168 to 170
98 | Cc1c(C2(c3cccs3)CCC(c3ccccc3)(N(C)C)CC2)[nH]c2ccccc12 (centres undefined) | 202 to 205
99 | COc1cc2c3c(c1)-c1c(O)cccc1CC3N(C)CC2 (centres undefined) | 214 to 215
